Measured values published in the supplement of paper PMC10307832.

How the values were obtained:
Test in all cases: relative viability (nuclei count vs DMSO), 5 days (fraction); higher = more cells survive
ChaGo-K-1 = tested on: ChaGo-K-1
Method in brief: (§1)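 Each reported value is a median over duplicate plates. It expresses relative viability: treated-well nuclei count divided by vehicle-well nuclei count. Lung cancer cell lines in 1536-well plates were dosed by pin tool a day after seeding, alone with one drug or with a fixed anchor-drug dose plus five library-drug doses (not always all listed) in √10 steps, and nuclei were counted after 5 days.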

EMC-BAC-2 = tested on: EMC-BAC-2
Method in brief: as §1

EPLC-272H = tested on: EPLC-272H
Method in brief: as §1

HCC-78 = tested on: HCC-78
Method in brief: as §1

HCC-827 = tested on: HCC-827
Method in brief: as §1

LCLC-103H = tested on: LCLC-103H
Method in brief: as §1

LK-2 = tested on: LK-2
Method in brief: as §1

LOU-NH91 = tested on: LOU-NH91
Method in brief: as §1

LU99A = tested on: LU99A
Method in brief: as §1

LXF-289 = tested on: LXF-289
Method in brief: as §1

NCI-H1563 = tested on: NCI-H1563
Method in brief: as §1

NCI-H1666 = tested on: NCI-H1666
Method in brief: as §1

NCI-H1975 = tested on: NCI-H1975
Method in brief: as §1

NCI-H2085 = tested on: NCI-H2085
Method in brief: as §1

NCI-H2126 = tested on: NCI-H2126
Method in brief: as §1

NCI-H23 = tested on: NCI-H23
Method in brief: as §1

NCI-H2405 = tested on: NCI-H2405
Method in brief: as §1

NCI-H3122 = tested on: NCI-H3122
Method in brief: as §1

NCI-H322M = tested on: NCI-H322M
Method in brief: as §1

RERF-LC-KJ = tested on: RERF-LC-KJ
Method in brief: as §1

SK-LU-1 = tested on: SK-LU-1
Method in brief: as §1

SW 1573 = tested on: SW 1573
Method in brief: as §1

SW 900 = tested on: SW 900
Method in brief: as §1

## Oc1nc(-c2ccc(C(F)(F)F)cc2)nc2c1CSCC2 [XAV939] + N=C(N)NC(=N)NCCc1ccccc1 [Phenformin] (partner 250 µM)
ChaGo-K-1; first compound 0.08 µM
  relative viability: 0.51
ChaGo-K-1; first compound 0.253 µM
  relative viability: 0.476
ChaGo-K-1; first compound 0.8 µM
  relative viability: 0.412
ChaGo-K-1; first compound 2.53 µM
  relative viability: 0.409
EMC-BAC-2; first compound 0.08 µM
  relative viability: 0.551
EMC-BAC-2; first compound 0.253 µM
  relative viability: 0.459
EMC-BAC-2; first compound 0.8 µM
  relative viability: 0.424
EMC-BAC-2; first compound 2.53 µM
  relative viability: 0.288
EPLC-272H; first compound 0.08 µM
  relative viability: 0.311
EPLC-272H; first compound 0.253 µM
  relative viability: 0.316
EPLC-272H; first compound 0.8 µM
  relative viability: 0.308
EPLC-272H; first compound 2.53 µM
  relative viability: 0.325
HCC-78; first compound 0.08 µM
  relative viability: 0.711
HCC-78; first compound 0.253 µM
  relative viability: 0.62
HCC-78; first compound 0.8 µM
  relative viability: 0.66
HCC-78; first compound 2.53 µM
  relative viability: 0.516
HCC-827; first compound 0.08 µM
  relative viability: 0.364
HCC-827; first compound 0.253 µM
  relative viability: 0.421
HCC-827; first compound 0.8 µM
  relative viability: 0.452
HCC-827; first compound 2.53 µM
  relative viability: 0.394
LCLC-103H; first compound 0.08 µM
  relative viability: 0.369
LCLC-103H; first compound 0.253 µM
  relative viability: 0.29
LCLC-103H; first compound 0.8 µM
  relative viability: 0.304
LCLC-103H; first compound 2.53 µM
  relative viability: 0.315
LK-2; first compound 0.08 µM
  relative viability: 0.458
LK-2; first compound 0.253 µM
  relative viability: 0.527
LK-2; first compound 0.8 µM
  relative viability: 0.484
LK-2; first compound 2.53 µM
  relative viability: 0.369
LOU-NH91; first compound 0.08 µM
  relative viability: 0.672
LOU-NH91; first compound 0.253 µM
  relative viability: 0.627
LOU-NH91; first compound 0.8 µM
  relative viability: 0.702
LOU-NH91; first compound 2.53 µM
  relative viability: 0.618
LU99A; first compound 0.08 µM
  relative viability: 0.956
LU99A; first compound 0.253 µM
  relative viability: 0.863
LU99A; first compound 0.8 µM
  relative viability: 0.807
LU99A; first compound 2.53 µM
  relative viability: 0.853
LXF-289; first compound 0.08 µM
  relative viability: 0.556
LXF-289; first compound 0.253 µM
  relative viability: 0.48
LXF-289; first compound 0.8 µM
  relative viability: 0.539
LXF-289; first compound 2.53 µM
  relative viability: 0.546
NCI-H1563; first compound 0.08 µM
  relative viability: 0.616
NCI-H1563; first compound 0.253 µM
  relative viability: 0.681
NCI-H1563; first compound 0.8 µM
  relative viability: 0.594
NCI-H1563; first compound 2.53 µM
  relative viability: 0.636
NCI-H1666; first compound 0.08 µM
  relative viability: 0.561
NCI-H1666; first compound 0.253 µM
  relative viability: 0.497
NCI-H1666; first compound 0.8 µM
  relative viability: 0.555
NCI-H1666; first compound 2.53 µM
  relative viability: 0.555
NCI-H1975; first compound 0.08 µM
  relative viability: 0.409
NCI-H1975; first compound 0.253 µM
  relative viability: 0.42
NCI-H1975; first compound 0.8 µM
  relative viability: 0.382
NCI-H1975; first compound 2.53 µM
  relative viability: 0.37
NCI-H2085; first compound 0.08 µM
  relative viability: 0.741
NCI-H2085; first compound 0.253 µM
  relative viability: 0.686
NCI-H2085; first compound 0.8 µM
  relative viability: 0.737
NCI-H2085; first compound 2.53 µM
  relative viability: 0.653
NCI-H2126; first compound 0.08 µM
  relative viability: 0.577
NCI-H2126; first compound 0.253 µM
  relative viability: 0.494
NCI-H2126; first compound 0.8 µM
  relative viability: 0.48
NCI-H2126; first compound 2.53 µM
  relative viability: 0.516
NCI-H23; first compound 0.08 µM
  relative viability: 0.892
NCI-H23; first compound 0.253 µM
  relative viability: 0.722
NCI-H23; first compound 0.8 µM
  relative viability: 0.613
NCI-H23; first compound 2.53 µM
  relative viability: 0.806
NCI-H2405; first compound 0.08 µM
  relative viability: 0.373
NCI-H2405; first compound 0.253 µM
  relative viability: 0.399
NCI-H2405; first compound 0.8 µM
  relative viability: 0.363
NCI-H2405; first compound 2.53 µM
  relative viability: 0.413
NCI-H3122; first compound 0.08 µM
  relative viability: 0.38
NCI-H3122; first compound 0.253 µM
  relative viability: 0.336
NCI-H3122; first compound 0.8 µM
  relative viability: 0.338
NCI-H3122; first compound 2.53 µM
  relative viability: 0.39
NCI-H322M; first compound 0.08 µM
  relative viability: 0.88
NCI-H322M; first compound 0.253 µM
  relative viability: 0.716
NCI-H322M; first compound 0.8 µM
  relative viability: 0.625
NCI-H322M; first compound 2.53 µM
  relative viability: 0.578
RERF-LC-KJ; first compound 0.08 µM
  relative viability: 0.485
RERF-LC-KJ; first compound 0.253 µM
  relative viability: 0.425
RERF-LC-KJ; first compound 0.8 µM
  relative viability: 0.442
RERF-LC-KJ; first compound 2.53 µM
  relative viability: 0.364
SK-LU-1; first compound 0.08 µM
  relative viability: 0.548
SK-LU-1; first compound 0.253 µM
  relative viability: 0.513
SK-LU-1; first compound 0.8 µM
  relative viability: 0.447
SK-LU-1; first compound 2.53 µM
  relative viability: 0.556
SW 1573; first compound 0.08 µM
  relative viability: 0.483
SW 1573; first compound 0.253 µM
  relative viability: 0.398
SW 1573; first compound 0.8 µM
  relative viability: 0.369
SW 1573; first compound 2.53 µM
  relative viability: 0.37
SW 900; first compound 0.08 µM
  relative viability: 0.657
SW 900; first compound 0.253 µM
  relative viability: 0.49
SW 900; first compound 0.8 µM
  relative viability: 0.537
SW 900; first compound 2.53 µM
  relative viability: 0.419
